Where “and” joins values, the source holds several entries; their conditions need not be identical. Equal values may be shown once. Read-outs that look alike come from different tables or passages of the source.
Assays:
[1] = tested on: H. polygyrus; assay: In vivo efficacy study in H. polygyrus mouse model; parameters: species or system NMRI mice infected with H. polygyrus; conditions: for # Mice cured/ # Mice investigated: assessed 1 week after dosing; for Median # of living H. polygyrus worms: median (MAD) of adults collected from intestine; for Live worms in intestine (individual mouse) / Live worms in intestine, Median (+/- MAD): worm burden one week after dose; for Live worms in intestine (individual mouse): Mouse 1-4, 200 mg/kg; for Live worms in intestine, Median (+/- MAD): three to four mice
Experimental: For in vivo testing, female 3-week old NMRI mice were purchased from Charles River, Germany. The mice were kept in individually ventilated cages (IVC) under environmentally controlled conditions (temperature: 22 °C ± 2 °C; relative humidity: 55% ± 15%; artificial lighting with a circadian cycle of 12 h of light) and had free access to water (municipal tap water supply) and rodent food. Rodents were allowed to acclimatize to the new environment for 1 week before infection. Upon 2 days of arrival, dexamethasone (0.25 mg/L) (Sigma-Aldrich, Switzerland) was added to the normal drinking water for immunosuppression to enable parasite establishment. After 1 week, mice were orally infected with 100 H. polygyrus third larval stage (L3) in 150 µL water.
Four benzimidazole derivatives were tested for in vivo efficacy. The administration of dexamethasone was stopped after 12 days post-infection and 2 days later, the selected four benzimidazole derivatives were administered by oral gavage at a single dose of 200 mg/kg to groups of each four mice. Four mice were left untreated and served as a control group. The derivatives were prepared as a Tween80 (Sigma-Aldrich, Switzerland)/ethanol (Merck, Germany) mixture dissolved in tap water (7:3:90, v/v). After 6–7 days post-dosing, the mice were euthanized with CO2 and dissected. Adult worms were removed from the intestine and counted. The worm burden reduction was calculated by comparing the number of worms found in the control animals versus the treated animals.

[2] = tested on: HEK293 cells; conditions: HEK293 cells
[3] = tested on: C. elegans; assay: C. elegans chemical screens of RIKEN NPD libraries at 50 μM (hit identification in KCN survival and development/viability assays); type: cell-based, Caenorhabditis elegans; conditions: screened at 50 μM in triplicate; […]; KCN = KCN survival assay, Dev. & Viability = development/viability assay
[4] = biological target: P. pacificus complex I (Pristionchus pacificus, UniProt A0A454XZ18+A0A8R1Z3U8+A4UAP3); assay: In vitro complex I activity assay, P. pacificus mitochondria; type: biochemical; conditions: for IC50: purified mitochondria
Experimental: Mitochondria were isolated from the following free-living nematode strains: C. elegans—N2, CB3474, ECA882, ECA917, ECA1075, ECA1080; C. briggsae—AF16; P. pacificus—PS312; and P. hermaphrodita—B178. With the exception of the P. hermaphrodita strain B178, adult worms of each strain were grown in bulk through liquid culture to obtain mitochondria in sufficient quantities. Due to poor growth in liquid media, mixed stage populations of P. hermaphrodita were washed off and collected from NGM plates seeded with OP50. The isolation of mitochondria from all free-living nematode strains followed the protocol previously outlined in Burns et al.[24]. In brief, a 1 L saturated culture of E. coli HB101 was concentrated 20-fold in 50 mL complete S-medium. ~500,000 L1 worms synchronized from an embryo preparation performed the day prior were added to the S-media/HB101 suspension and grown to adulthood over the course of 3.5 days at 20 °C with shaking at 165 rpm. Following growth, worms were collected in 10 ×15 mL conical tubes and washed 7 times in M9 buffer. Worm suspensions were then combined into a single 15 mL conical tube and diluted to a final volume of 15 mL with M9 buffer. 1 mL aliquots of worm suspension were then distributed to 15 × 1.5 mL screw-cap microcentrifuge tubes and were pelleted at 500 g for 1 min. Excess M9 was aspirated without disturbing the worm pellet. 600 μL ice-cold isolate buffer A (250 mM sucrose, 10 mM Tris (pH 7.5), 1 mM EDTA, 1 mM PMSF (freshly prepared)) and 300 μL cold glass beads were then added to each tube. Tubes were incubated on ice for 10 min, and the worms were then lysed by bead beating (6 x 30 s, with 1 min cooling intervals). Tubes containing worm lysate were centrifuged at 1,000 g for 10 min at 4 °C and the supernatant was transferred to 15 new microcentrifuge tubes on ice. The tubes were centrifuged a second time at 1,000 g for 10 min at 4 °C and the supernatant was once again transferred to 15 new microcentrifuge tubes on ice. These tubes were then centrifuged at 16,000 g for 10 min at 4 °C. The resulting mitochondrial pellet was washed twice by re-suspension in 300 μL of ice-cold isolate buffer B (250 mM sucrose, 10 mM Tris (pH 7.5), 1 mM EDTA). Following the final wash, isolation buffer was aspirated from each tube and the pellets were flash-frozen in ethanol/dry ice and stored at −80 °C until needed.
The enzymatic activities of individual ETC complexes (I-IV) were assessed spectrophotometrically in isolated mitochondria using a Varioskan LUX Multimode plate reader (ThermoFisher Scientific). Mitochondrial pellets previously isolated were thawed on ice and resuspended in ice-cold isolation buffer (250 mM sucrose, 10 mM Tris (pH 7.5), 1 mM EDTA). The BCA assay (Walker, 1994) was used to quantify the protein concentration of mitochondria suspensions; solutions were diluted to a concentration of 0.2 mg/mL for use in all assays. For the complex I assay, mitochondria pellets were freeze-thawed on ice three times to increase enzyme accessibility. […] 20 μL mitochondria suspension was then added/mixed with a pipette to initiate the reaction. Immediately following the addition of mitochondria, absorbance was measured (complex I and II: 600 nm; complex III and IV: 550 nm) in 30 s intervals over 15 min. Enzymatic activity was determined in each reaction by plotting absorbance versus time and calculating the slope of the curve during the initial linear phase of the reaction. […] Percent activity of each complex was calculated by dividing the enzyme-specific activity of each well by the enzyme-specific activity of the corresponding solvent controls.
Chemical solutions were prepared in complex I assay buffer composed of 25 mM KPi buffer (pH 7.5), 3 mg/mL bovine serum albumin (BSA), 80 μM NADH, 60 μM decylubiquinone, 160 μM DCIP, 2 μM antimycin A and 2 mM KCN. […]

[5] = single oral dose 200 mg/kg, vs untreated control mice
[6] = single oral dose of 200 mg/kg, median worm counts versus control mice
[7] = P. pacificus mitochondria, Mean of replicates, read-out: in vitro complex I activity relative to solvent control
[8] = P. pacificus mitochondria, Mean, read-out: in vitro complex I activity relative to solvent control
[9] = P. pacificus mitochondria, single replicate, read-out: in vitro complex I activity relative to solvent control

| Structure (SMILES) | # Mice cured/ # Mice investigated ([1]; single oral dose 200 mg/kg) | % Worm burden reduction [1, 5] | Median # of living H. polygyrus worms ([1]; single oral dose 200 mg/kg) | % Worm burden reduction [1, 6] | Live worms in intestine (individual mouse) ([1]; single oral dose of 200 mg/kg) | Live worms in intestine, Median (+/- MAD) ([1]; single oral dose of 200 mg/kg) | remaining activity at 0.0001 µM [4, 8] | remaining activity at 0.0001 µM [4, 9] | remaining activity at 0.0005 µM [4, 8] | remaining activity at 0.001 µM [4, 8] | remaining activity at 0.0025 µM [4, 8] | remaining activity at 0.005 µM [4, 8] | remaining activity at 0.013 µM [4, 8] | remaining activity at 0.025 µM [4, 8] | remaining activity at 0.063 µM [4, 8] | remaining activity at 0.125 µM [4, 8] | remaining activity at 0.313 µM [4, 8] | remaining activity at 0.625 µM [4, 8] | remaining activity at 1.5 µM [4, 8] | remaining activity at 3 µM [4, 8] | further results |
| --- | --- | --- | --- | --- | --- | --- | --- | --- | --- | --- | --- | --- | --- | --- | --- | --- | --- | --- | --- | --- | --- |
| Clc1ccc(SCCCCn2cnc3ccccc32)cc1 [Compound 7925515] | 0/4 | 19.4% | 100.0 (8.0) | 19.3548% | 113 and 100 and 92 | 100 (8.0) | – | – | – | – | – | – | – | – | – | – | – | – | – | – | – |
| CC(C)Cc1ccc(C(C)c2nc3ccccc3n2C)cc1 (centres unmarked) [NPD8790] | 0/4 | 23.0% | 95.5 (4.0) | 22.9839% | 93 and 52 and 101 and 98 | 95.5 (4.0) | 85.3% | 79.8% | 88.9% | 112% | 110% | 117% | 105% | 107% | 105% | 88% | 82% | 75.5% | 68.1% | 49.1% | toxicity against mammalian cells [2]: low toxicity; Hit Type [3]: KCN; remaining activity at 0.06 µM ([4]; P. pacificus mitochondria, 0.06 µM, Mean of replicates, read-out: in vitro complex I activity relative to solvent control): 105%; remaining activity at 0.13 µM ([4]; P. pacificus mitochondria, 0.13 µM, Mean of replicates, read-out: in vitro complex I activity relative to solvent control): 88%; remaining activity at 0.313 µM [4, 7]: 82%; remaining activity at 0.625 µM [4, 7]: 75.5%; remaining activity at 1.5 µM [4, 7]: 68.1%; remaining activity at 3 µM [4, 7]: 49.1%; remaining activity at 15 µM [4, 7]: 21.4%; remaining activity at 37.5 µM [4, 7]: 16.3%; remaining activity at 75 µM [4, 7]: 11.3%; remaining activity at 0.0005 µM [4, 9]: 82.3%; remaining activity at 0.313 µM [4, 9]: 71.1%; remaining activity at 15 µM [4, 8]: 21.4%; remaining activity at 37.5 µM [4, 8]: 16.3%; remaining activity at 75 µM [4, 8]: 11.3%; IC50 [4]: 2100 nM |
| CCn1c(C(C)c2ccc(CC(C)C)cc2)nc2ccccc21 (centres unmarked) [STK951902] | 0/4 | 41.1% | 73.0 (1.5) | 41.1290% | 73 and 52 and 76 | 73 (1.5) | – | – | – | – | – | – | – | – | – | – | – | – | – | – | – |
| Cc1ccccc1OCCCCn1cnc2ccccc21 [Compound 7732524] | 0/4 | 24.6% | 93.5 (5.0) | 24.5968% | 95 and 92 and 111 and 85 | 93.5 (5.0) | 87.6% | 93.9% | 88.6% | 75.8% | 97.4% | 100% | 85.8% | 73.7% | 46.6% | 24.7% | 8.23% | 11.5% | 9.66% | 9.9% | remaining activity at 15 µM [4, 8]: 16.2%; remaining activity at 15 µM [4, 9]: 15.9%; remaining activity at 37.5 µM [4, 8]: 16.1%; remaining activity at 75 µM [4, 8]: 7.58%; IC50 [4]: 56.2 nM |

— article PMC11079024, “Identification of a family of species-selective complex I inhibitors as potential anthelmintics” (Nature Communications, 2024)
